Measured values: ChEMBL document CHEMBL1148221, “Constituents of Senecio chionophilus with potential antitubercular activity” (2004)
Values after ≈ are worked out from the molar mass of the structure shown.

system: Mycobacterium tuberculosis; test: Antitubercular activity against Mycobacterium tuberculosis H37Rv ATCC 27294 by microplate Alamar blue assay; type: functional

Q: For `CC1(C)CC[C@]2(C(=O)O)CC[C@]3(C)C(=CC[C@@H]4[C@@]5(C)CC[C@H](O)C(C)(C)[C@@H]5CC[C@]43C)[C@@H]2C1` [OLEANOLIC_ACID], which MIC is on record?
A: 64 mg/L (≈ 140 µM)

Q: Which MIC does the source give for `CCC(C)C(=O)O[C@@H]1c2c(C)coc2C(=O)[C@@H]2[C@@H](O)CC[C@H](C)[C@@]12C` (some centres not stated) here?
A: 119 mg/L (≈ 342 µM)

Q: `CC(=O)c1ccc(O)cc1` [4-HYDROXYACETOPHENONE] was tested. Which MIC did it give?
A: 121 mg/L (≈ 889 µM)

Q: For `C[C@H]1[C@H](C)CC[C@]2(C(=O)O)CC[C@]3(C)C(=CC[C@@H]4[C@@]5(C)CC[C@H](O)C(C)(C)[C@@H]5CC[C@]43C)[C@H]12` [URSOLIC ACID], which MIC is on record?
A: 32 mg/L (≈ 70.1 µM)

Q: How did the MIC turn out when `C=C(C)[C@@H]1CC[C@]2(C(=O)O)CC[C@]3(C)[C@H](CC[C@@H]4[C@@]5(C)CC[C@H](O)C(C)(C)[C@@H]5CC[C@]43C)[C@@H]12` [BETULINIC ACID] was run?
A: 32 mg/L (≈ 70.1 µM)

Q: With `CO[C@H]1/C=C/O[C@@]2(C)Oc3c(C)c(O)c4c(O)c(c(/C=N/N5CCN(C)CC5)c(O)c4c3C2=O)NC(=O)/C(C)=C\C=C\[C@H](C)[C@H](O)[C@@H](C)[C@@H](O)[C@@H](C)[C@H](OC(C)=O)[C@@H]1C` [RIFAMPIN] as the compound, how does the MIC read?
A: 0.03 mg/L (≈ 0.0365 µM)

Q: `C/C=C(/C)C(=O)O[C@@H]1c2c(C)coc2C(=O)[C@@H]2[C@@H](O)CC[C@H](C)[C@@]12C` was tested. Which MIC did it give?
A: 114 mg/L (≈ 329 µM)
